# Results: ChEMBL document CHEMBL1127656, “Articulating a pharmacophore driven synthetic strategy: Discovery of a potent substance P antagonist” (Bioorg Med Chem Lett, 1994)
# Biological target: Substance-P receptor (Homo sapiens, UniProt P25103)
# Experiment: In vitro binding affinity towards human NK-1 receptor in IM-9 cells using [3H]SP of substance P antagonist
# Assay type: cell-based
# Chain of Substance-P receptor (P25103 whole entry): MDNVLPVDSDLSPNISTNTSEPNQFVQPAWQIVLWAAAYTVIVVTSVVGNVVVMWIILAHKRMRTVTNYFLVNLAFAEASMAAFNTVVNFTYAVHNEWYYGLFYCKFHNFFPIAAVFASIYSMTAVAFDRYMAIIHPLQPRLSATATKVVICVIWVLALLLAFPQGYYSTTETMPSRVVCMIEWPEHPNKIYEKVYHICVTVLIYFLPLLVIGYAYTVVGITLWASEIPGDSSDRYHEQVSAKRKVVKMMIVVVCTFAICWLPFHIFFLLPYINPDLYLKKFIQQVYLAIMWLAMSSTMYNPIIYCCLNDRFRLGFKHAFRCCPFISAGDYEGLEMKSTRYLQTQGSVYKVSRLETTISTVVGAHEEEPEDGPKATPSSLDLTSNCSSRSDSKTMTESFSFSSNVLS
smiles,measurement,value
COc1ccccc1CN[C@H]1[C@@H]2CCC[C@@H]2N[C@H]1c1ccccc1 (racemic),Ki,2.4 nM
